# Reference: US6040300A, “Method of preventing colon cancer with vitamin D3 analogues” (Arch Development Corporation, priority 1995, dated 2000)
# Entries after “also recorded” stand apart in the source; their conditions may differ.
# Legend:
# [1] = Body weight / growth and tolerability of the animals; assay type: in vivo; conditions: for Final Wt.: mean ± S.E.M.
# Description: (§1) Male albino Fisher-344 rats, initially weighing ~90-100 g, were used in these studies. On arrival, the animals were quarantined for 1 wk and then randomly divided into the following six test groups: groups 1 and 2, standard vitamin D-sufficient diet; groups 3 and 4, standard diet supplemented with RO24-5531 (2.50 nmol/kg of feed); and groups 5 and 6, standard vitamin D-sufficient diet. […] Next, the rats in groups 2,4 and 6 were given subcutaneous injections of azoxymethane (AOM, Sigma Chemical Co., St. Louis, Mo.), 15 mg/kg body wt once a wk for 2 wks, while the rats in groups 1,3 and 5 received AOM-vehicle (saline).
# (§2) Groups 1 and 2 were then maintained on the standard diet for an additional […]. Groups 3 and 4 were maintained on the RO24-5531 supplemented diets for the initial five wks and then switched to the standard diet without RO24-5531 for an additional 29 wks (initiation arm), whereas groups 5 and 6 were maintained on the standard diet without supplemental RO24-5531 for the initial five wks and then switched to the RO24-5531 supplemented diet for an additional 29 wks (post-initiation arm).
# (§3) All rats were sacrificed in the non-fasting state after 34 wks on these protocols between 9 a.m. and 11 a.m. and sera obtained for measurement of calcium, phosphate, 25(OH)D3 and 1α,25(OH)2 D3 levels. The rats' colons were removed, opened, washed with normal saline and examined macroscopically for the presence of tumors. Resected tumors were weighed, and were fixed in 10% buffered formalin for microscopic examination. After formalin fixation, tissue specimens were paraffin-embedded, sectioned, and stained with hematoxylin and eosin as described previously (Sitrin et al., 1991), for light microscopic examination. All specimens were evaluated by a pathologist who was unaware of the dietary or AOM treatment history. Macroscopic and microscopic lesions were classified as either benign (adenoma) or malignant (adenocarcinoma).
# (§4) Results are expressed as means ±SE of n determinations. Data were analyzed by Fisher's exact test (two-tailed) or analysis of variance (ANOVA) as appropriate (Snedecor and Cochran, Statistical Methods, 1980). Values of p <0.05 were considered statistically significant.
# [2] = test system: AOM-induced colonic tumors; test: AOM-induced colonic tumor formation with dietary RO24-5531; assay type: in vivo, Male albino Fisher-344 rats; conditions: for inhibition of development of colonic tumors / colon cancer incidence: AOM model, dietary supplementation
# Procedure: FIG. 2. Study Protocol: Rats (12 each, in groups 1,3 and 5; 20 each, in groups 2,4 and 6) were fed either standard diet without RO24-5531 (open bars), or RO24-5531 supplemented diets (shaded bars) for the initial five weeks of the study. During this period rats were given two weekly subcutaneous injections of either AOM (15 mg/kg body wt/wk) (groups 2,4 or 6), or AOM-vehicle (saline) (groups 1,3, or 5) at the end of weeks 2 and 3 (arrows). At the end of five weeks, rats in groups 1-2 were continued on the standard diet without RO24-5531; groups 3-4 were switched to standard diet without RO24-5531; and groups 5-6 were switched to the RO24-5531 supplemented diet for another 29 weeks.
# RO24-5531 was provided by Hoffmann LaRoche Inc. (Nutley, NJ; EP 580968). All diets were obtained from ICN Biochemicals (Cleveland, Ohio). Prior to pelleting, RO24-5531 or vehicle (0.1% ethanol) were mixed with the standard vitamin D-sufficient diet by ICN Biochemicals. This diet has been described in detail (Sitrin et al., 1991) and contained a normal content of calcium and phosphorus, 0.87% and 0.60%, respectively, with 2.2 IU of vitamin D3 /g of feed.
# as §1, §2, §3, §4
# [3] = test system: NMU-induced breast cancers; conditions: cited from earlier work
# [4] = Serum 1α,25(OH)2 D3 levels (competitive protein-binding assay, calf thymus receptor); assay type: in vivo, Male albino Fisher-344 rats; conditions: all test groups
# Description: as §1, with “(saline). […]” for “(saline).”
# All rats were sacrificed in the non-fasting state after 34 wks on these protocols between 9 a.m. and 11 a.m. and sera obtained for measurement of calcium, phosphate, 25(OH)D3 and 1α,25(OH)2 D3 levels. […] All specimens were evaluated by a pathologist who was unaware of the dietary or AOM treatment history. […]
# Serum calcium and phosphorus were measured by standard colorimetric methods (Kessler and Wolfman, Clin. Chem. 10:686-703, 1964). Serum 25(OH)D3 levels were measured by radioimmunoassay, using a kit and procedure supplied by Incstar (Stillwater, Minn.). […]
# Results are expressed as means ±SE of n determinations. Data were analyzed by Fisher's exact test (two-tailed) or analysis of variance (ANOVA) as appropriate (Snedecor and Cochran, Statistical Methods, 1980). […]
# [5] = Serum 25(OH)D3 levels (radioimmunoassay); assay type: in vivo, Male albino Fisher-344 rats; conditions: for Serum Levels 25(OH)D3: mean ± S.E.M., n=6
# Description: as §1, §2, §3
# (§5) Serum calcium and phosphorus were measured by standard colorimetric methods (Kessler and Wolfman, Clin. Chem. 10:686-703, 1964). Serum 25(OH)D3 levels were measured by radioimmunoassay, using a kit and procedure supplied by Incstar (Stillwater, Minn.). Serum 1α,25(OH)2 D3 levels were assayed by a non-equilibrium competitive protein-binding assay based on a calf thymus receptor, using a kit and procedure supplied by Incstar, as previously described (Sitrin et al., 1991).
# as §4
# [6] = test system: HL-60 cells; conditions: cited from earlier work
# [7] = Serum phosphorus (standard colorimetric method); assay type: in vivo, Male albino Fisher-344 rats; conditions: for Serum Levels P: mean ± S.E.M.
# Description: as §1, §2, §3, §5, §4
# [8] = breast tumor study; cited from earlier work
# [9] = group 3: RO24-5531/SD, no AOM, 12 animals
# [10] = group 4: RO24-5531/SD (initiation arm), AOM
# [11] = group 4: RO24-5531/SD (initiation arm), AOM, 20 animals
# [12] = group 4: RO24-5531/SD (initiation arm), AOM, 20 animals, p < 0.05 vs group 2
# [13] = group 5: SD/RO24-5531, no AOM, 12 animals
# [14] = group 6: SD/RO24-5531 (post-initiation arm), AOM
# [15] = group 6: SD/RO24-5531 (post-initiation arm), AOM, 20 animals
smiles,measurement,setting,value
"C=C1/C(=C\C=C2/CCC[C@]3(C)C([C@H](C)CC#CC(O)(C(F)(F)F)C(F)(F)F)=CC[C@@H]23)C[C@@H](O)C[C@@H]1O [RO24-5531, 26,26,26,27,27,27-hexafluoro-1α,25-dihydroxy-16-ene-23-yne-cholecalciferol]",influence on growth of the animals,"[1]; RO24-5531 supplemental dietary regimens, all groups","neither the RO24-5531 supplemental dietary regimens, nor the administration of carcinogen influenced the growth of the animals"
same,tolerability,[1]; dietary supplementation,well-tolerated by the animals
same,Final Wt.,"[1]; group 3: RO24-5531 2.50 nmol/kg of feed for initial five wks, then SD, no AOM",470 ± 20 g
same,Final Wt.,"[1]; group 4: RO24-5531/SD (initiation arm), AOM treated",465 ± 16 g
same,Final Wt.,"[1]; group 5: SD/RO24-5531 (supplement for last 29 wks), no AOM",511 ± 30 g
same,Final Wt.,"[1]; group 6: SD/RO24-5531 (post-initiation arm), AOM treated",499 ± 28 g
same,inhibition of development of colonic tumors / colon cancer incidence,"[2]; listed as 1α, 25-Dihydroxy-16-ene-23-yne-26, 27-hexafluorocholecalciferol",reduced the incidence of colon cancer in rats
same,inhibition of development of colonic tumors / colon cancer incidence,"[2]; listed as 1α,25-dihydroxy-16-ene-23-yne-26,27-hexafluorocholecalciferol",can inhibit the development of colonic tumors in mammals; also recorded: can inhibit the development of colonic tumors in the AOM model
same,development of tumors,"[2]; AOM-vehicle, RO24-5531 supplemented diets (groups 3, 5)",None of the control animals given injections of the AOM-vehicle and fed either the standard or RO24-5531 supplemented diets developed tumors
same,Tumors/Tumor Bearing rat,"[2]; group 3: RO24-5531/SD, no AOM",0
same,No. of Tumor-Bearing Rats,[2]; [9],0
same,"No. of Tumors, Benign No.",[2]; [9],0
same,"No. of Tumors, Malignant No.",[2]; [9],0
same,"No. of Tumors, Total No.",[2]; [9],0
same,incidence of colonic tumors vs group 2,"[2]; group 4, initiation arm",significant decreases in the incidence of colonic tumors
same,tumor type,"[2]; group 4, initiation arm","all of the colonic tumors in group 4 (initiation arm) were found to be benign, i.e., adenomas"
same,Tumor Wt.,[2]; [10],102 ± 28 mg
same,Tumors/Tumor Bearing rat,[2]; [10],1.0
same,"No. of Tumors, Benign No.",[2]; [11],3
same,"No. of Tumors, Malignant No.",[2]; [11],0
same,No. of Tumor-Bearing Rats,[2]; [12],3
same,"No. of Tumors, Total No.",[2]; [12],3
same,Tumor-Bearing Rats (% of Incidence),"[2]; group 4: RO24-5531/SD (initiation arm), AOM, p < 0.05 vs group 2 (50%)",15%
same,Tumors/Tumor Bearing rat,"[2]; group 5: SD/RO24-5531, no AOM",0
same,No. of Tumor-Bearing Rats,[2]; [13],0
same,"No. of Tumors, Benign No.",[2]; [13],0
same,"No. of Tumors, Malignant No.",[2]; [13],0
same,"No. of Tumors, Total No.",[2]; [13],0
same,tumor type,"[2]; group 6, post-initiation arm",all of the colonic tumors were found to be adenomas
same,number of tumors vs AOM alone animals,"[2]; group 6, post-initiation arm, p >0.05",a trend for a decrease in the number of tumors; also recorded: did not reach statistical significance
same,Tumor Wt.,[2]; [14],109 mg
same,Tumors/Tumor Bearing rat,[2]; [14],1.0
same,No. of Tumor-Bearing Rats,[2]; [15],6
same,"No. of Tumors, Benign No.",[2]; [15],6
same,"No. of Tumors, Malignant No.",[2]; [15],0
same,"No. of Tumors, Total No.",[2]; [15],6
same,Tumor-Bearing Rats (% of Incidence),"[2]; group 6: SD/RO24-5531 (post-initiation arm), AOM, group 2: 50%",30%
same,AOM-induced adenocarcinomas,"[2]; post-initiation arm, like its initiation arm counterpart",complete absence of AOM-induced adenocarcinomas
same,protection against NMU-induced breast cancers,[3]; fed after administration of carcinogen,protected against the development of NMU-induced breast cancers
same,breast tumor incidence,[3]; in vivo,lessened tumor incidence
same,breast tumor latency,[3]; in vivo,extended breast tumor latency
same,breast tumor number,[3]; in vivo,lessened tumor incidence as well as tumor number
same,"effect on serum 1α,25(OH)2 D3 levels",[4],no differences were observed
same,Serum Levels 25(OH)D3,"[5]; group 3: RO24-5531/SD, no AOM",31 ± 2 ng/mL
same,Serum Levels 25(OH)D3,[5]; [10],29 ± 2 ng/mL
same,Serum Levels 25(OH)D3,"[5]; group 5: SD/RO24-5531, no AOM",33 ± 4 ng/mL
same,Serum Levels 25(OH)D3,[5]; [14],36 ± 5 ng/mL
same,effect on serum levels of 25(OH)D3,[5]; groups 4 and 6,"significantly altered the serum levels of calcium, phosphorus or 25(OH)D3"
same,induction of differentiation,[6],induction of differentiation
same,inhibition of proliferation,[6],inhibit proliferation of HL-60 cells; also recorded: inhibition of proliferation
same,Serum Levels P,"[7]; group 3: RO24-5531/SD, no AOM, n=10",10.2 ± 0.7 mg/dL
same,Serum Levels P,"[7]; group 4: RO24-5531/SD (initiation arm), AOM, n=5",9.9 ± 0.8 mg/dL
same,Serum Levels P,"[7]; group 5: SD/RO24-5531, no AOM, n=6",9.2 ± 0.3 mg/dL
same,Serum Levels P,"[7]; group 6: SD/RO24-5531 (post-initiation arm), AOM, n=11",9.0 ± 0.8 mg/dL
same,effect on serum levels of phosphorus,[7]; groups 4 and 6,"significantly altered the serum levels of calcium, phosphorus or 25(OH)D3"
same,serum Ca2+ levels,[8],without causing elevated levels of serum Ca^2+
